In US20020061325A1, “Container for 4-allylanisole and analog scolytid pesticides” (priority 1993, published 2002):

Columns and labels:
[1] = system: southern pine beetle; assay: Laboratory assay for effectiveness of repellent (circle of compound on cardboard, beetle response); format: in vivo; parameters: BEHAVIORAL RATING: scale not given here; settings: for BEHAVIORAL RATING: numerical score for degree of behavioral response; for repelled behavioral response (in words): laboratory tests
Description: A) Laboratory Assay for Effectiveness of Repellent
The candidate compound was applied as a circle (17 cm in diameter by 5 mm in width) to a 28 by 21.5 cm piece of uncoated cardboard using a camel-hair brush. Three minutes after application, a beetle was placed in the center of the circle. In each trial, at least 20 healthy-appearing beetles were tested. Testing was conducted at room temperature (22°-25° C.) with light supplied from an adjoining room. The beetles were briefly refrigerated prior to testing to reduce their tendency to fly immediately upon release. An object was used to cast a shadow over the test circle in order to minimize response to light, which could interfere with the interpretation of insect response to an applied substance.

[2] = system: southern pine beetle; assay: Field assay with frontalure-baited Lindgren funnel traps; format: in vivo; settings: for rank (relative repellency, 1 = best repellent): frontalure plus test compound; for mean rank: mean over the trials in which the compound was tested; for rank in reduction of trap captures: the two field trials in which they were tested, relative to 4-allylanisole
Description: B) Field Assays of the Effectiveness of Repellents
Field assays were carried out with selected 4-allylanisole analogs, including 4-allylanisole, anisole, 4-isopropylanisole, allylbenzene, 4-methylstyrene, toluene, and trans-anethole. The protocol for these assays is similar to that previously described (Hayes, et al., 1994a; Hayes and Strom, 1994c, both incorporated by reference as if fully set forth herein). Populations of local southern pine beetle were tested for response to these compounds using baited Lindgren funnel (16-funnel) traps. Traps were placed in or near active infestations of southern pine beetle over the course of the summer of 1997. Treatment baits consisted of the attractant frontalure and frontalure plus the test compound released from a 4-ml Samco pipette bulb. Hayes, et al., (J. Vozzo [ed.] Research and applications of chemical sciences in forestry: Proceeding of the 4th Southern Station Chemical Sciences Meeting, GTR-SO-104:69-80, 1994). Frontalure is a combination of frontalin, which is an aggregation pheromone of the southern pine beetle, and a-pinene, a synergistic host oleoresin compound. In most cases, each trap array consisted of a total of six traps: one frontalure-only treatment; one frontalure plus 4-allylanisole treatment, and four traps containing treatments of frontalure plus a 4-allylanisole analog. In one instance a 12-trap array was employed, the array having two traps per treatment.
(§1) Release rates were determined in preliminary studies using simple gravimetric measurement of bulbs to provide elution in mg/day units. Release rates of all analog compounds were equal to or greater than that of 4-allylanisole. Placement of treatments was originally assigned at random and rotated sequentially with each collection. Each array was collected through two full rotations. Whole traps were moved in order to eliminate the possibility of contamination. Collection cups contained a 5.5×2 cm piece of pest strip, containing as its active ingredient the insecticidal agent 2,2 dichlorovinyldimethylphosphate to kill the captured insects. The numbers of captured southern pine beetle and of predatory clerid beetle Thanasimus dubius, the most important natural enemy of the southern pine beetle, were determined. Data were analyzed using ANOVA (SAS PROC GLM) to determine if the mean numbers of southern pine beetles or clerids were affected by treatment. The positions of the traps were also taken into consideration in the model.

[3] = Release rate by gravimetric measurement of pipette bulbs; format: physicochemical; settings: elution from 4-ml Samco pipette bulb, preliminary studies
Description: as §1

[4] = 30-second exposure, 3 min after application, at least 20 beetles per trial, 22-25 C
[5] = compounds marked * : originally tested with sample size of 45-53 beetles, published in Hayes et al. 1994

## CCOc1ccccc1OC [2-ethoxyanisole]
[1]; [4]
  % REPELLED: 40%
[1]; 30-second exposure
  BEHAVIORAL RATING: 2

## CCc1ccccc1O [2-ethylphenol]
[1]; [4]
  % REPELLED: 50%
[1]; 30-second exposure
  BEHAVIORAL RATING: 2

## COCC(=O)c1ccccc1 [2-methoxyacetophenone]
[1]; [4]
  % REPELLED: 8%
[1]; 30-second exposure
  BEHAVIORAL RATING: 2

## COc1ccccc1CO [2-methoxybenzyl alcohol]
[1]; [4]
  % REPELLED: 0%
[1]; 30-second exposure
  BEHAVIORAL RATING: 1

## COc1ccccc1C [2-methylanisole]
[1]; [4]
  % REPELLED: 35%
[1]; 30-second exposure
  BEHAVIORAL RATING: 1

## CCCc1ccccc1OC [2-propylanisole]
[1]; [4]
  % REPELLED: 8%
[1]; 30-second exposure
  BEHAVIORAL RATING: 2

## CCCc1ccccc1O [2-propylphenol]
[1]; 30-second exposure
  BEHAVIORAL RATING: 2

## COc1cccc(C(C)=O)c1 [3-methoxyacetophenone]
[1]; [4]
  % REPELLED: 8%
[1]; 30-second exposure
  BEHAVIORAL RATING: 2

## COc1cccc(CO)c1 [3-methoxybenzyl alcohol]
[1]; [4]
  % REPELLED: 0%
[1]; 30-second exposure
  BEHAVIORAL RATING: 1

## C=CCc1ccc(OC)cc1 [4-allylanisole]
[2]; TRIAL 1
  rank (relative repellency, 1 = best repellent): 1
[2]; TRIAL 2
  rank (relative repellency, 1 = best repellent): 1
[2]; TRIAL 3
  rank (relative repellency, 1 = best repellent): 1
[2]; TRIAL 4
  rank (relative repellency, 1 = best repellent): 1
[2]; TRIAL 5
  rank (relative repellency, 1 = best repellent): 1
[2]; TRIAL 6
  rank (relative repellency, 1 = best repellent): 1
[2]; all trials
  beetles captured relative to other treatments: fewest
[2]
  mean rank: 1.0
[3]
  release rate: 15.6 mg/day

## COc1ccc(C(C)C)cc1 [4-isopropylanisole]
[1]; [5]
  % REPELLED: >90%
[2]; TRIAL 1
  rank (relative repellency, 1 = best repellent): 4
[2]; TRIAL 2
  rank (relative repellency, 1 = best repellent): 2
[2]; TRIAL 3
  rank (relative repellency, 1 = best repellent): 2
[2]; TRIAL 4
  rank (relative repellency, 1 = best repellent): 5
[2]; TRIAL 5
  rank (relative repellency, 1 = best repellent): 3
[2]; TRIAL 6
  rank (relative repellency, 1 = best repellent): 2
[2]
  mean rank: 3.5
[3]
  release rate: 16.45 mg/day

## COc1ccc(C(C)=O)cc1 [4-methoxyacetophenone]
[1]; [4]
  % REPELLED: 96%
[1]; 30-second exposure
  BEHAVIORAL RATING: 3

## COc1ccc(C=CC#N)cc1 [4-methoxycinnamonitrile]
[1]; [5]
  % REPELLED: <20%

## COc1ccc(CC#N)cc1 [4-methoxypheylacetonitrile]
[1]; [5]
  % REPELLED: <30%

## COc1ccc(C)cc1 [4-methylanisole]
[1]; [4]
  % REPELLED: 45%
[1]; 30-second exposure
  BEHAVIORAL RATING: 2

## C=Cc1ccc(C)cc1 [4-methylstyrene]
[1]
  repelled behavioral response (in words): modest repellent response
[1]; 30-second exposure
  BEHAVIORAL RATING: 2
[2]; TRIAL 3
  rank (relative repellency, 1 = best repellent): 2
[2]; TRIAL 4
  rank (relative repellency, 1 = best repellent): 3
[2]
  mean rank: 2.5
  rank in reduction of trap captures: second and third
[3]
  release rate: 674.75 mg/day

## COc1ccc(C(C)(C)C)cc1 [4-tert-butylanisole]
[1]; [4]
  % REPELLED: 0%
[1]; 30-second exposure
  BEHAVIORAL RATING: 1

## C=Cc1ccc(OC)cc1 [4-vinylanisole]
[1]; [4]
  % REPELLED: 24%
[1]; 30-second exposure
  BEHAVIORAL RATING: 2

## C=CCc1ccccc1 [allylbenzene]
[1]; [5]
  % REPELLED: >90%
[2]; TRIAL 1
  rank (relative repellency, 1 = best repellent): 5
[2]; TRIAL 2
  rank (relative repellency, 1 = best repellent): 5
[2]; TRIAL 5
  rank (relative repellency, 1 = best repellent): 2
[2]; TRIAL 6
  rank (relative repellency, 1 = best repellent): 4
[2]
  mean rank: 4.0
[3]
  release rate: 128.2 mg/day

## COc1ccccc1 [anisole]
[1]; [5]
  % REPELLED: >80%
[2]; TRIAL 1
  rank (relative repellency, 1 = best repellent): 3
[2]; TRIAL 2
  rank (relative repellency, 1 = best repellent): 4
[2]; TRIAL 3
  rank (relative repellency, 1 = best repellent): 4
[2]; TRIAL 4
  rank (relative repellency, 1 = best repellent): 2
[2]; TRIAL 5
  rank (relative repellency, 1 = best repellent): 5
[2]; TRIAL 6
  rank (relative repellency, 1 = best repellent): 3
[2]
  mean rank: 3.5
[3]
  release rate: 52.2 mg/day

## CCCCc1ccccc1 [butylbenzene]
[1]; [4]
  % REPELLED: 39%
[1]; 30-second exposure
  BEHAVIORAL RATING: 2

## CC(C)c1ccccc1 [cumene]
[1]; [4]
  % REPELLED: 55%
[1]; 30-second exposure
  BEHAVIORAL RATING: 3

## CCc1ccccc1 [ethylbenzene]
[1]; [4]
  % REPELLED: 72%
[1]; 30-second exposure
  BEHAVIORAL RATING: 3

## C=CCc1ccc(O)c(OC)c1 [eugenol]
[1]; [5]
  % REPELLED: <40%

## Cc1cccc(C)c1 [m-xylene]
[1]; [4]
  % REPELLED: 34%
[1]; 30-second exposure
  BEHAVIORAL RATING: 2

## Cc1ccccc1C [o-xylene]
[1]; [4]
  % REPELLED: 46%
[1]; 30-second exposure
  BEHAVIORAL RATING: 2

## COc1ccc(C=O)cc1 [p-anisaldehyde]
[1]; [4]
  % REPELLED: 65%
[1]; 30-second exposure
  BEHAVIORAL RATING: 3

## Cc1ccc(C(C)C)cc1 [p-cymene]
[1]; [4]
  % REPELLED: 28%
[1]; 30-second exposure
  BEHAVIORAL RATING: 2

## Cc1ccc(C)cc1 [p-xylene]
[1]; [4]
  % REPELLED: 50%
[1]; 30-second exposure
  BEHAVIORAL RATING: 2

## CCOc1ccccc1 [phenetole]
[1]; 30-second exposure
  BEHAVIORAL RATING: 2

## CCCc1ccccc1 [propylbenzene]
[1]; [4]
  % REPELLED: 17%
[1]; 30-second exposure
  BEHAVIORAL RATING: 1

## Cc1ccccc1 [toluene]
[1]
  repelled behavioral response (in words): modest repellent response
[1]; 30-second exposure
  BEHAVIORAL RATING: 2
[2]; TRIAL 1
  rank (relative repellency, 1 = best repellent): 2
[2]; TRIAL 2
  rank (relative repellency, 1 = best repellent): 3
[2]
  mean rank: 2.5
  rank in reduction of trap captures: second and third
[3]
  release rate: 462.6 mg/day

## C/C=C/c1ccc(OC)cc1 [trans-anethole]
[1]; [5]
  % REPELLED: <20%
[2]; TRIAL 3
  rank (relative repellency, 1 = best repellent): 3
[2]; TRIAL 4
  rank (relative repellency, 1 = best repellent): 4
[2]; TRIAL 5
  rank (relative repellency, 1 = best repellent): 4
[2]; TRIAL 6
  rank (relative repellency, 1 = best repellent): 6
[2]
  mean rank: 4.25
[3]
  release rate: 44.65 mg/day
